Target: T1, chimeric human H3 receptor (Homo sapiens, UniProt Q9Y5N1)
T1 construct: made in house; host or cells: Sf9 insect cells (baculovirus); P2 membrane preparation
Test: Chimeric human H3 receptor GTP binding assay (agonist-stimulated GTP-gamma35S binding, Example 7)
Format: biochemical
Conditions: Table II "Ki", symbol *; assay of Example 7
How it was run: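 Sf9 membranes co-expressing chimeric human H3 receptor and heterotrimeric G-protein, 35 μg/tube, in pH 7.4 Tris buffer with 10 μM GDP. Test compounds (10^−10–10^−6 M) competed against 1 μM histamine, […] GTP-gamma35S, 60 min at room temperature. Filter-bound radioactivity counted; IC50 converted to Ki by Cheng-Prusoff. Agonism/inverse agonism tested without histamine (EC50).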

T1 sequence (Q9Y5N1 with tags, fused parts or gaps): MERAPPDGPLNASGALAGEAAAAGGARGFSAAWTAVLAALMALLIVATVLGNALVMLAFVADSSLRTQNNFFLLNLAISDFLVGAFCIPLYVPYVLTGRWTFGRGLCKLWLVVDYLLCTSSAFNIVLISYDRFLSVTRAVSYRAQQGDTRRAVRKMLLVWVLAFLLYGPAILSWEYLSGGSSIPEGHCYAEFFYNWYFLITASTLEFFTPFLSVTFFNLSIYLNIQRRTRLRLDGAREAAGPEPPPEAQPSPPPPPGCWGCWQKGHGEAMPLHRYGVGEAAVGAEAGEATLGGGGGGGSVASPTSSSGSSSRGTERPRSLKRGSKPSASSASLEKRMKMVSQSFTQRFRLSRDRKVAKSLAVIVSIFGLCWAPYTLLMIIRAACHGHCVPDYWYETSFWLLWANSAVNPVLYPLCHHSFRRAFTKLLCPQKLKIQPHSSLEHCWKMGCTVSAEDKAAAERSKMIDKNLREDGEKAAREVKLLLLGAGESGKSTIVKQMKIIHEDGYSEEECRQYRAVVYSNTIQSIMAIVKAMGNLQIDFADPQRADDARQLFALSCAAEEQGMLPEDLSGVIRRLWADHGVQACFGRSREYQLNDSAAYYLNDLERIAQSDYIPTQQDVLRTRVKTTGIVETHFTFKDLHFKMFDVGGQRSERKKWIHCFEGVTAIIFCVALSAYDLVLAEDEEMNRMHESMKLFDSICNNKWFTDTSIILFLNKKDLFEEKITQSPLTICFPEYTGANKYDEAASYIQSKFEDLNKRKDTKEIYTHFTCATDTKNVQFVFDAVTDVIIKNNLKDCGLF

Row | Structure (SMILES) | Ki
1 | CC1CCCC1N1CCN(C(=O)CN2CCc3cc(-c4cncnc4)ccc3C2)CC1 (centres unmarked) [Compound 613, 2-{2-[4-(2-methylcyclopentyl)piperazin-1-yl]-2-oxoethyl}-6-pyrimidin-5-yl-1,2,3,4-tetrahydroisoquinoline] | < 1000 nM
2 | CC1CCCC1N1CCN(C(=O)CN2CCc3cc(-c4cncnc4)ccc3C2)C[C@@H]1C (stereo partly drawn) [Compound 614, 2-{2-[(3S)-3-methyl-4-(2-methylcyclopentyl)piperazin-1-yl]-2-oxoethyl}-6-pyrimidin-5-yl-1,2,3,4-tetrahydroisoquinoline] | < 1000 nM
3 | C[C@H]1CN(C(=O)CN2CCc3cc(-c4cncnc4)ccc3C2)CCN1C1CCCCC1 [Compound 616, 2-{2-[(3S)-4-cyclohexyl-3-methylpiperazin-1-yl]-2-oxoethyl}-6-pyrimidin-5-yl-1,2,3,4-tetrahydroisoquinoline] | < 1000 nM
4 | C[C@@H]1CN(C(=O)CN2CCc3cc(-c4cncnc4)ccc3C2)CCN1C1CCCCC1 [Compound 617, 2-{2-[(3R)-4-cyclohexyl-3-methylpiperazin-1-yl]-2-oxoethyl}-6-pyrimidin-5-yl-1,2,3,4-tetrahydroisoquinoline] | < 1000 nM
5 | CC1CCCCC1N1CCN(C(=O)CN2CCc3cc(-c4cncnc4)ccc3C2)CC1 (centres unmarked) [Compound 619, 2-{2-[4-(2-methylcyclohexyl)piperazin-1-yl]-2-oxoethyl}-6-pyrimidin-5-yl-1,2,3,4-tetrahydroisoquinoline] | < 1000 nM
6 | C[C@H]1CN(C(=O)CN2CCc3cc(-c4cncnc4)ccc3C2)CCN1C1C[C@H]2CC[C@@H]1C2 (stereo partly drawn) [Compound 624, 2-(2-{(3S)-4-[(1R,4S)-bicyclo[2.2.1]hept-2-yl]-3-methylpiperazin-1-yl}-2-oxoethyl)-6-pyrimidin-5-yl-1,2,3,4-tetrahydroisoquinoline] | < 1000 nM

Results, then the molecule that gave them:

Row | Ki | Structure (SMILES)
7 | < 1000 nM | CCN(CC)c1ccc(-c2ccc3c(c2)CCN(CC(=O)N2CCN(C4CCC4)CC2)C3)cc1 [Compound 625, 4-{2-[2-(4-cyclobutylpiperazin-1-yl)-2-oxoethyl]-1,2,3,4-tetrahydroisoquinolin-6-yl}-N,N-diethylaniline]
8 | < 1000 nM | N#Cc1ccccc1-c1ccc2c(c1)CCN(CC(=O)N1CCN(C3CCC3)CC1)C2 [Compound 627, 2-{2-[2-(4-cyclobutylpiperazin-1-yl)-2-oxoethyl]-1,2,3,4-tetrahydroisoquinolin-6-yl}benzonitrile]
9 | < 1000 nM | Cc1cccc(-c2ccc3c(c2)CCN(CC(=O)N2CCN(C4CCC4)CC2)C3)n1 [Compound 628, 2-[2-(4-cyclobutylpiperazin-1-yl)-2-oxoethyl]-6-(6-methylpyridin-2-yl)-1,2,3,4-tetrahydroisoquinoline]
10 | < 1000 nM | Cc1ccc(-c2ccc3c(c2)CCN(CC(=O)N2CCN(C4CCC4)CC2)C3)nc1 [Compound 629, 2-[2-(4-cyclobutylpiperazin-1-yl)-2-oxoethyl]-6-(5-methylpyridin-2-yl)-1,2,3,4-tetrahydroisoquinoline]
11 | < 1000 nM | Cc1ccnc(-c2ccc3c(c2)CCN(CC(=O)N2CCN(C4CCC4)CC2)C3)c1 [Compound 630, 2-[2-(4-cyclobutylpiperazin-1-yl)-2-oxoethyl]-6-(4-methylpyridin-2-yl)-1,2,3,4-tetrahydroisoquinoline]
12 | < 1000 nM | O=C(CN1CCc2cc(-c3ccc(Cl)cn3)ccc2C1)N1CCN(C2CCC2)CC1 [Compound 631, 6-(5-chloropyridin-2-yl)-2-[2-(4-cyclobutylpiperazin-1-yl)-2-oxoethyl]-1,2,3,4-tetrahydroisoquinoline]
13 | < 1000 nM | O=C(CN1CCc2cc(-c3ccc(C(F)(F)F)cn3)ccc2C1)N1CCN(C2CCC2)CC1 [Compound 632, 2-[2-(4-cyclobutylpiperazin-1-yl)-2-oxoethyl]-6-[5-(trifluoromethyl)pyridin-2-yl]-1,2,3,4-tetrahydroisoquinoline]
14 | < 1000 nM | COc1cccc(-c2ccc3c(c2)CCN(CC(=O)N2CCN(C4CCC4)CC2)C3)n1 [Compound 633, 2-[2-(4-cyclobutylpiperazin-1-yl)-2-oxoethyl]-6-(6-methoxypyridin-2-yl)-1,2,3,4-tetrahydroisoquinoline]

From patent US20110082130A1 (LIGAND PHARMACEUTICALS, INC., priority 2006, published 2011)
